Here are results for nine molecules from US4728656A, “2,2-alkyldiylbis(thio)bis(imidazoles) useful for inhibition of the 5-lipoxygenase pathway” (SmithKline Beckman Corporation, priority 1986, dated 1988).

Like-named read-outs stand apart in the source and are kept apart here.

One experiment relates to myocardial infarction. The conditions noted are these: dogs; Mollane et al.; cited from earlier work.
The target of another experiment is T1, 5-Lipoxygenase (Rattus norvegicus, UniProt P12527).
T1 construct: The broken cell extract was then centrifuged at 10,000×g for 20 minutes (min) and the supernatant centrifuge at 100,000×g for 60 min; host or cells: RBL-1 cells, high speed (100,000×g) supernatant
T1 sequence (P12527 1-673): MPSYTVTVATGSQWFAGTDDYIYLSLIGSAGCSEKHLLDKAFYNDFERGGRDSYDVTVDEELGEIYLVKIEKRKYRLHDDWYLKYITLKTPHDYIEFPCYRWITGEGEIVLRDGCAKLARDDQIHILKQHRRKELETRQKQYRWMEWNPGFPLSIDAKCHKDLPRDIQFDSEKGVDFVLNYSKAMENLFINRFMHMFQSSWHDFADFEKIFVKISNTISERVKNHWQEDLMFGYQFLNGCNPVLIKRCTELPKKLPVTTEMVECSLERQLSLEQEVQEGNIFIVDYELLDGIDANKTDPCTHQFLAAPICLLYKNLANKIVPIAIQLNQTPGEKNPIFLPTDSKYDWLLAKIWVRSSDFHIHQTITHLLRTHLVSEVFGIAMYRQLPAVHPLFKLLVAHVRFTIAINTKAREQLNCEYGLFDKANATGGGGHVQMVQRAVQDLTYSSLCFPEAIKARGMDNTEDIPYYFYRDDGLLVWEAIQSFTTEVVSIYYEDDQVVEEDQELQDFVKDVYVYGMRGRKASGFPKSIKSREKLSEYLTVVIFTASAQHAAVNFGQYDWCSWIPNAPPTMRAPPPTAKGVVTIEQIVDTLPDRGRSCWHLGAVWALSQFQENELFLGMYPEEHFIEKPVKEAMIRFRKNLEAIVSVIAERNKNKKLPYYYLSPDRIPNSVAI
Briefly: Assay of 5-lipoxygenase activity in RBL-1 cell extract (high speed supernatant). It is filed as biochemical. The following applies: 25 μM arachidonic acid, 5 min at 37° C. On the procedure:
For in vitro experiments, compounds were dissolved at appropriate concentrations in ethanol (final concentration 1.0%) and then diluted to final concentrations using the buffers indicated in the text.
The activities of these enzymes in extracts of RBL-1 cells were assayed using the method of Jakschik and Lee, Nature, 287, 51-52 (1980). RBL--1 cells were obtained from the American Type Culture Collection (#CRL 1378) and were grown at 37° C. (5% CO2 in air) in spinner culture in MEM supplemented with 10% heat inactivated fetal calf serum. Harvested cells were washed with 50 mM sodium phosphate buffer, pH 7.0, containing 1 mM EDTA and 0.1% gelatin, resuspended in fresh buffer (5×10^7 cells/ml) and disrupted by nitrogen cavitation using the Parr bomb at 750 psi for 10 min. The broken cell extract was then centrifuged at 10,000×g for 20 minutes (min) and the supernatant centrifuge at 100,000×g for 60 min. Aliquots (0.25 mls) of the supernatant were preincubated with or without drugs for 10 min, after which 12 mM CaCl2 was added and the reaction was initiated with […] arachidonic acid-1-^14 C (final concentration was 25 μM; specific activity 20,000 dpm/nmole). After incubation for 5 min at 37° C., the reaction was terminated by addition of 2 volumes (0.5 ml) ice cold acetone and the sample was allowed to deproteinize on ice for 10 min prior to centrifugation at 1,000×g for 10 min. The deproteinized supernatant was adjusted to pH 3.5 with 2N formic acid and extracted with 2 volumes of ice cold ethyl acetate. The extracted samples were dried under argon, redissolved in ethyl acetate and applied to Whatman LK5D thin layer chromatography (TLC) plates which were developed using the A-9 solvent system [organic phase of ethyl acetate: 2,2,5-trimethylpentane:acetic acid:water (110:50:20:10)] described by Hamberg and Samuelsson, J. Biol. Chem., 241, 257-263 (1966). Arachidonic acid, 5-HETE, LTB4 and PGD2 were quantified with a Berthold LB 2832 autoscanner.
Under these conditions, only the 5-lipoxygenase pathway metabolites were detectable. The 5-HETE and di-HETEs were formed at a linear rate, and substantial amounts of the arachidonic acid-1-^14 C substrate were utilized.
Drug-induced effects on enzyme activities are described as the concentration of drug causing a 50% inhibition of metabolite synthesis (IC50).

Experiment [1] concerns Arachidonic Acid-Induced Mouse Ear Inflammation. The experiment in a line: Arachidonic acid-induced mouse ear inflammation (ear swelling). It is filed as in vivo, male Balb/c mice. Also noted: key to % Inhibition of Ear Swelling: *: p < .05; **: p < .01; ***: p < .001; NS: not significant. The following applies: p.o. The method, then: In the following Examples male Balb/c mice (20-28 g) were used. All mice were obtained from Charles River Breeding Laboratories, Kingston, N.Y. Within a single experiment, mice were sex and age matched.
Compounds of Formula (I), indomethacin, naproxen, and ibuprofen were each used as the free base. The compounds were homogenized in 0.5% tragacanth. Compounds were administered by gavage at the indicated dose in a final volume of 10 ml/kg.
Arachidonic acid in acetone (2 mg/20 μl ) was applied to the inner surface of the left ear. The thickness of both ears was then measured with a dial micrometer one hour after treatment, and the data were expressed as the change in thickness (10^-3 cm) between treated and untreated ears.
Test compounds were given orally in 0.5% tragacanth at the times indicated in the text prior to the topical application of arachidonic acid.
Parenteral administration of compound was accomplished by subcutaneous injection of solution as indicated.

Experiment [2] deals with LTB4 and 5-HETE production. The following applies: in vitro; Stenson et al.; cited from earlier work.
For a further experiment, the system named is rheumatoid arthritis. The following applies: preliminary observation; Neumann et al.; cited from earlier work.
The test system of the next experiment is psoriasis. The conditions noted are these: Allen et al.; cited from earlier work.
A further experiment relates to lipoxygenase. The conditions noted are these: in vitro; cited from earlier work.
Where [3] appears, read: 5HETE production by RBL1 high speed supernatant, read-out: 5-HETE IC50.
Setting [4] is: LTB4 production by RBL1 high speed supernatant, read-out: LTB4 IC50.

Turning to `NC1=NN(c2cccc(C(F)(F)F)c2)CC1` [BW755-C], in the experiment on myocardial infarction, the “area of infarction following coronary occlusion” value is recorded as “reduced” and the “leukocyte infiltration into the ischaemic tissue” value is listed as “inhibition of leukocyte infiltration into the ischaemic tissue”. Consider `Fc1ccc(-c2nc(SCCSc3nc(-c4ccc(F)cc4)c(-c4ccc(F)cc4)[nH]3)[nH]c2-c2ccc(F)cc2)cc1` [Compound 1, 2,2'-[ethanediylbis(thio)]bis[4,5-bis(4-fluorophenyl)-1H-imidazole]], for which the IC50 – broadly, the concentration needed to halve the response being measured – on 5-Lipoxygenase (setting [3]) was found to be 18.5 µM; at 5-Lipoxygenase (setting [4]), 3.3 µM. `O=C(CSc1nc(-c2ccc(F)cc2)c(-c2ccncc2)[nH]1)CSc1nc(-c2ccc(F)cc2)c(-c2ccncc2)[nH]1` [Compound 2, 2-2'-[1,3-propan-2-onediylbis(thio)]bis[5-(4-pyridyl)-4-(4-fluorophenyl)-1H-imidazole]]: the “% Inhibition of Ear Swelling” value in experiment [1] (Table I, 2 mg arachidonic acid, thickness 1 h after treatment) is “NS”. Moreover, the IC50 was 1.7 µM on 5-Lipoxygenase (setting [3]) and 0.65 µM at 5-Lipoxygenase (setting [4]). As for `O=C(CSc1nc(-c2ccc(F)cc2)c(-c2ccc(F)cc2)[nH]1)CSc1nc(-c2ccc(F)cc2)c(-c2ccc(F)cc2)[nH]1` [Compound 3, 2,2'-[1,3-propan-2-onediylbis(thio)]bis[4,5-bis-(4-fluorophenyl)-1H-imidazole]], the IC50 at 5-Lipoxygenase (setting [3]) worked out at 5.3 µM; at 5-Lipoxygenase (setting [4]) it was 1.6 µM. As to `O=C(O)c1cc(/N=N/c2ccc(S(=O)(=O)Nc3ccccn3)cc2)ccc1O` [Sulfasalazine], the “inhibition of LTB4 and 5-HETE production” value in experiment [2] is “inhibit LTB4 and 5-HETE production in vitro”. Moreover, the “efficacy in rheumatoid arthritic patients” value in the experiment on rheumatoid arthritis was “efficacy, including remission”. With `CC(C(=O)O)c1ccc2oc(-c3ccc(Cl)cc3)nc2c1` (stereo not shown) [benoxaprofen], the effect on psoriasis entry in the experiment on psoriasis is given as “promising effect”. Also, in the experiment with lipoxygenase, the lipoxygenase inhibitory activity entry is given as “in vitro lipoxygenase inhibitory activity”. With `CC(C)Cc1ccc(C(C)C(=O)O)cc1` (stereo not shown) [ibuprofen], the antiinflammatory activity result in experiment [1] (250 mg/kg) was “did not exhibit detectaole antiinflammatory activity”. For `COc1ccc2c(c1)c(CC(=O)O)c(C)n2C(=O)c1ccc(Cl)cc1` [indomethacin], the antiinflammatory activity result in experiment [1] (10 mg/kg) is recorded as “did not exhibit detectaole antiinflammatory activity”. `COc1ccc2cc([C@H](C)C(=O)O)ccc2c1` [naproxen]: the antiinflammatory activity result in experiment [1] (100 mg/kg) was “did not exhibit detectaole antiinflammatory activity”.
